These results are taken from PubChem BioAssay AID194 (DTP/NCI, 2004).

This test deals with BDF1 mice, B16 melanoma s.c., survival/tumor T/C. Put plainly: NCI In Vivo Anticancer Drug Screen. Data for tumor model B16 Melanoma (subcutaneous) in B6D2F1 (BDF1) mice. The method, then:
The antitumor activity of compounds was measured in mice bearing transplantable tumors. Survival or tumor size were measured and the results are expressed as the measurement made in the treated group (T) divided by the measurement made in the vehicle treated control group (C). The tumor model used in this assay is B16 Melanoma (subcutaneous) in B6D2F1 (BDF1) mice

The mark [1] stands for this setting: endpoint: median survival time, dose: 25.0 mg/kg/injection, schedule: Q01DX009 (ip), vehicle: saline with Tween-80, higher = longer survival.
[2] abbreviates: endpoint: median survival time, dose: 50.0 mg/kg/injection, schedule: Q01DX009 (ip), vehicle: saline with Tween-80, higher = longer survival.
[3] abbreviates: endpoint: median survival time, dose: 100.0 mg/kg/injection, schedule: Q01DX009 (ip), vehicle: saline with Tween-80, higher = longer survival.
[4] abbreviates: endpoint: median survival time, dose: 400.0 mg/kg/injection, schedule: Q01DX009 (ip), vehicle: saline with Tween-80, higher = longer survival.
Where [5] appears, read: endpoint: median survival time, dose: 5.0 mg/kg/injection, schedule: Q01DX009 (ip), vehicle: saline, higher = longer survival.
Setting [6] is: endpoint: median survival time, dose: 63.0 micrograms/kg/injection, schedule: Q01DX009 (ip), vehicle: saline, higher = longer survival.
Setting [7] is: endpoint: median survival time, dose: 125.0 micrograms/kg/injection, schedule: Q01DX009 (ip), vehicle: saline, higher = longer survival.
Setting [8] is: endpoint: median survival time, dose: 2.5 mg/kg/injection, schedule: Q01DX009 (ip), vehicle: saline, higher = longer survival.
Where [9] appears, read: endpoint: median survival time, dose: 10.0 mg/kg/injection, schedule: Q01DX009 (ip), vehicle: saline, higher = longer survival.

Values joined by “and” are separate entries in the source; they are usually repeats but may differ in a detail not shown here. Identical values can stand only once. Records with an inconclusive call do not appear.

As to `CCN(CC)CCCC(C)Nc1c2ccc(Cl)cc2nc2ccc(OC)cc12` (stereo not given), the T/C (endpoint: median survival time, dose: 8.0 mg/kg/injection, schedule: Q01DX009 (ip), vehicle: saline with Tween-80, higher = longer survival) is 116 % of control; the T/C (endpoint: median survival time, dose: 8.0 mg/kg/injection, schedule: Q01DX009 (ip), vehicle: saline, higher = longer survival) was 96 % of control; the T/C (endpoint: median survival time, dose: 8.0 mg/kg/injection, schedule: Q01DX009 (ip), vehicle: suspension in saline, higher = longer survival) is 119 % of control; the T/C (endpoint: median survival time, dose: 16.0 mg/kg/injection, schedule: Q01DX009 (ip), vehicle: saline with Tween-80, higher = longer survival) was 96 % of control and 118 % of control; the T/C (endpoint: median survival time, dose: 16.0 mg/kg/injection, schedule: Q01DX009 (ip), vehicle: saline, higher = longer survival) is 100 % of control; the T/C (endpoint: median survival time, dose: 16.0 mg/kg/injection, schedule: Q01DX009 (ip), vehicle: suspension in saline, higher = longer survival) was 121 % of control. Moreover, the T/C is 100 % of control and 108 % of control (endpoint: median survival time, dose: 32.0 mg/kg/injection, schedule: Q01DX009 (ip), vehicle: saline with Tween-80, higher = longer survival); 99 % of control (endpoint: median survival time, dose: 32.0 mg/kg/injection, schedule: Q01DX009 (ip), vehicle: saline, higher = longer survival); 116 % of control (endpoint: median survival time, dose: 32.0 mg/kg/injection, schedule: Q01DX009 (ip), vehicle: suspension in saline, higher = longer survival); 102 % of control and 110 % of control (endpoint: median survival time, dose: 64.0 mg/kg/injection, schedule: Q01DX009 (ip), vehicle: saline with Tween-80, higher = longer survival); 95 % of control (endpoint: median survival time, dose: 64.0 mg/kg/injection, schedule: Q01DX009 (ip), vehicle: saline, higher = longer survival); 121 % of control (endpoint: median survival time, dose: 64.0 mg/kg/injection, schedule: Q01DX009 (ip), vehicle: suspension in saline, higher = longer survival). Moreover, the T/C reads like this: (endpoint: median survival time, dose: 128.0 mg/kg/injection, schedule: Q01DX009 (ip), vehicle: saline with Tween-80, higher = longer survival) 102 % of control; (endpoint: median survival time, dose: 128.0 mg/kg/injection, schedule: Q01DX009 (ip), vehicle: suspension in saline, higher = longer survival) 119 % of control.
`C=CCN1/C(=C/C=C\c2sc3ccccc3[n+]2CC=C)Sc2ccccc21`: where the note is “endpoint: median survival time, dose: 125.0 micrograms/kg/injection, schedule: Q01DX009 (ip), vehicle: suspension in saline, higher = longer survival”, the T/C was 121 % of control.
Take `Cc1[nH]nc(-c2ccon2)c1N=O`: the T/C by setting is: (endpoint: median survival time, dose: 12.5 mg/kg/injection, schedule: Q01DX009 (ip), vehicle: saline with Tween-80, higher = longer survival) 91 % of control; under setting [1], 96 % of control; under setting [2], 100 % of control; under setting [3], 87 % of control.
For `S=c1nc[nH]c2nc[nH]c12`, the T/C is 103 % of control and 118 % of control (endpoint: median survival time, dose: 12.5 mg/kg/injection, schedule: Q01DX009 (ip), vehicle: Klucel (hydroxypropylcellulose) (HPC), higher = longer survival); 100 % of control under setting [1]; 100 % of control under setting [2]; 93 % of control under setting [3]; 103 % of control (endpoint: median tumor weight (est.), dose: 25.0 mg/kg/injection, schedule: Q01DX009 (ip), vehicle: saline with Tween-80, higher = larger tumour); 91 % of control (endpoint: median tumor weight (est.), dose: 50.0 mg/kg/injection, schedule: Q01DX009 (ip), vehicle: saline with Tween-80, higher = larger tumour).
As to `O=P(OCC(Br)CBr)(OCC(Br)CBr)OCC(Br)CBr` (stereo not given), the T/C by setting is: under setting [2], 110 % of control; under setting [3], 114 % of control; (endpoint: median survival time, dose: 200.0 mg/kg/injection, schedule: Q01DX009 (ip), vehicle: saline with Tween-80, higher = longer survival) 98 % of control; under setting [4], 105 % of control.
In the case of `O=NN(CCCl)C(=O)NC1CCC(=O)NC1=O` (stereo not given), the T/C is, setting by setting: (endpoint: median survival time, dose: 1.0 mg/kg/injection, schedule: Q01DX009 (ip), vehicle: Klucel (hydroxypropylcellulose) (HPC), higher = longer survival) 115 % of control; (endpoint: median survival time, dose: 1.56 mg/kg/injection, schedule: Q01DX007 (ip), vehicle: Klucel (hydroxypropylcellulose) (HPC), higher = longer survival) 97 % of control; (endpoint: median survival time, dose: 4.0 mg/kg/injection, schedule: Q01DX009 (ip), vehicle: Klucel (hydroxypropylcellulose) (HPC), higher = longer survival) 168 % of control and 228 % of control; (endpoint: median survival time, dose: 4.32 mg/kg/injection, schedule: Q01DX007 (ip), vehicle: Klucel (hydroxypropylcellulose) (HPC), higher = longer survival) 98 % of control; (endpoint: median survival time, dose: 7.2 mg/kg/injection, schedule: Q01DX007 (ip), vehicle: Klucel (hydroxypropylcellulose) (HPC), higher = longer survival) 121 % of control; (endpoint: median survival time, dose: 17.0 mg/kg/injection, schedule: Q01DX001 (ip), vehicle: gum acacia, higher = longer survival) 177 % of control. Under “endpoint: median survival time, dose: 23.0 mg/kg/injection, schedule: Q01DX001 (ip), vehicle: gum acacia, higher = longer survival”, the T/C was 89 % of control.
Regarding `Nc1n[nH]c(N)n1`, the T/C is 93 % of control under setting [3]; 97 % of control under setting [4]; 97 % of control (endpoint: median survival time, dose: 800.0 mg/kg/injection, schedule: Q01DX009 (ip), vehicle: saline with Tween-80, higher = longer survival); 100 % of control (endpoint: median tumor weight (est.), dose: 100.0 mg/kg/injection, schedule: Q01DX009 (ip), vehicle: saline with Tween-80, higher = larger tumour); 154 % of control (endpoint: median tumor weight (est.), dose: 800.0 mg/kg/injection, schedule: Q01DX009 (ip), vehicle: saline with Tween-80, higher = larger tumour).
For `O=c1[nH]cc(F)c(=O)[nH]1`, the T/C was 77 % of control under setting [5]; 100 % of control (endpoint: median survival time, dose: 8.4 mg/kg/injection, schedule: Q01DX009 (ip), vehicle: saline, higher = longer survival); 100 % of control (endpoint: median survival time, dose: 10.0 mg/kg/injection, schedule: Q01DX009 (ip), vehicle: Klucel (hydroxypropylcellulose) (HPC), higher = longer survival); 98 % of control and 101 % of control (endpoint: median survival time, dose: 10.0 mg/kg/injection, schedule: Q01DX009 (ip), vehicle: saline with Tween-80, higher = longer survival); 97 % of control (endpoint: median survival time, dose: 14.0 mg/kg/injection, schedule: Q01DX009 (ip), vehicle: saline, higher = longer survival); 100 % of control (endpoint: median survival time, dose: 20.0 mg/kg/injection, schedule: Q01DX009 (ip), vehicle: Klucel (hydroxypropylcellulose) (HPC), higher = longer survival). The T/C by setting is: (endpoint: median survival time, dose: 20.0 mg/kg/injection, schedule: Q01DX009 (ip), vehicle: saline with Tween-80, higher = longer survival) 111 % of control; (endpoint: median survival time, dose: 23.0 mg/kg/injection, schedule: Q01DX009 (ip), vehicle: saline, higher = longer survival) 107 % of control; (endpoint: median survival time, dose: 23.0 mg/kg/injection, schedule: Q04DX003 (ip), vehicle: saline, higher = longer survival) 100 % of control; (endpoint: median survival time, dose: 39.0 mg/kg/injection, schedule: Q04DX003 (ip), vehicle: saline, higher = longer survival) 97 % of control; (endpoint: median survival time, dose: 40.0 mg/kg/injection, schedule: Q01DX009 (ip), vehicle: saline with Tween-80, higher = longer survival) 98 % of control and 107 % of control; (endpoint: median survival time, dose: 50.0 mg/kg/injection, schedule: Q04DX003 (ip), vehicle: saline, higher = longer survival) 113 % of control. The T/C was 86 % of control (endpoint: median survival time, dose: 65.0 mg/kg/injection, schedule: Q04DX003 (ip), vehicle: saline, higher = longer survival); 107 % of control (endpoint: median survival time, dose: 108.0 mg/kg/injection, schedule: Q04DX003 (ip), vehicle: saline, higher = longer survival); 97 % of control and 84 % of control (endpoint: median tumor weight (est.), dose: 10.0 mg/kg/injection, schedule: Q01DX009 (ip), vehicle: Klucel (hydroxypropylcellulose) (HPC), higher = larger tumour); 65 % of control (endpoint: median tumor weight (est.), dose: 10.0 mg/kg/injection, schedule: Q01DX009 (ip), vehicle: saline with Tween-80, higher = larger tumour); 56 % of control (endpoint: median tumor weight (est.), dose: 20.0 mg/kg/injection, schedule: Q01DX009 (ip), vehicle: saline with Tween-80, higher = larger tumour); 75 % of control (endpoint: median tumor weight (est.), dose: 40.0 mg/kg/injection, schedule: Q01DX009 (ip), vehicle: Klucel (hydroxypropylcellulose) (HPC), higher = larger tumour). The T/C (endpoint: median tumor weight (est.), dose: 40.0 mg/kg/injection, schedule: Q01DX009 (ip), vehicle: saline with Tween-80, higher = larger tumour) was 39 % of control.
Consider `CCN1/C(=C/C=C/C=C/c2sc3ccccc3[n+]2CC)Sc2ccccc21`, for which the T/C runs as follows: under setting [6], 117 % of control; under setting [7], 120 % of control.
For the compound `CN[C@H]1CCc2cc(OC)c(OC)c(OC)c2-c2ccc(OC)c(=O)cc21`, the T/C is 109 % of control (endpoint: median survival time, dose: 1.25 mg/kg/injection, schedule: Q01DX009 (ip), vehicle: saline, higher = longer survival); 95 % of control under setting [8]; 111 % of control under setting [9].
For `Cn1c(CCCC(=O)O)nc2cc(N(CCCl)CCCl)ccc21`, the T/C under setting [8] was 120 % of control, the T/C under setting [5] was 98 % of control and the T/C under setting [9] is 96 % of control.
As to `O=C(O)CCCCC1CCSS1` (stereo not given), the T/C (endpoint: median survival time, dose: 7.81 mg/kg/injection, schedule: Q01DX009 (ip), vehicle: Klucel (hydroxypropylcellulose) (HPC), higher = longer survival) is 116 % of control and 117 % of control; the T/C (endpoint: median survival time, dose: 15.62 mg/kg/injection, schedule: Q01DX009 (ip), vehicle: Klucel (hydroxypropylcellulose) (HPC), higher = longer survival) was 112 % of control and 116 % of control; the T/C (endpoint: median survival time, dose: 125.0 mg/kg/injection, schedule: Q01DX009 (ip), vehicle: Klucel (hydroxypropylcellulose) (HPC), higher = longer survival) is 99 % of control and 100 % of control.
On to `COc1cc2c(c(OC)c1OC)-c1ccc(OC)c(=O)cc1[C@@H](NC(C)=O)CC2`, for which the T/C under setting [6] was 95 % of control; the T/C under setting [7] was 116 % of control; the T/C (endpoint: median survival time, dose: 250.0 micrograms/kg/injection, schedule: Q01DX009 (ip), vehicle: saline, higher = longer survival) is 105 % of control; the T/C (endpoint: median survival time, dose: 500.0 micrograms/kg/injection, schedule: Q01DX009 (ip), vehicle: saline, higher = longer survival) is 103 % of control.
